Patent publication US10022362B2, “Anti-allergy benzocycloheptathiophene derivatives” (FUJIAN MINDONG REJUVENATION PHARMACEUTICAL CO., LTD., priority 2011, dated 2018)

Columns and labels:
[1] = system: Mouse bone marrow derived eosinophils; assay: Inhibition of eosinophil proliferation in vitro (3H-thymidine incorporation); format: cell-based; conditions: for thymidine incorporation (eosinophil proliferation): eosinophils cultured with IL-5 (50 ng/ml), treated 1 hour, 3H-thymidine pulse 18 hours, CPM
Protocol: Mouse bone marrow derived eosinophils (1×10^5 cells/well) were seeded in 96 well plates in triplicate and were cultured with IL-5 (50 ng/ml). Eosinophils were treated with 4-[1-(5-methyl-pyridin-3-ylmethyl)piperidin-4-ylidene]-4,9-dihydro-1-thia-benzo[f]azulen-10-one (Compound A) or ketotifen for 1 hour. Cells were then pulsed with 0.5 μCi of ^3H-thymidine for 18 hours. Cells were harvested to glass fiber paper using a suction manifold and washed extensively to eliminate unincorporated thymidine. Fiber paper was dried and added to vials with 2.5 ml of scintillation fluid (Ecolite). Thymidine incorporation was measured on a Wallac beta counter.
The incorporation of ^3H-thymidine (eosinophil proliferation) was quantified by liquid scintillation counting (CPM).

[2] = system: Mice passively sensitized with anti-DNP IgE mAb, DNFB challenge; assay: Prophylactic effects: IgE-mediated late phase cutaneous reactions (ear and foot swelling); format: in vivo; conditions: 1 mg/kg orally twice (before IgE injection and before DNFB challenge), thickness measured after 24 h, FIG. 1B
Protocol: Mice were given 4-[1-(5-methyl-pyridin-3-ylmethyl)piperidin-4-ylidene]-4,9-dihydro-1-thia-benzo[f]azulen-10-one (1 mg/kg) or ketotifen (1 mg/kg) orally twice as per the schedule dosing regimen provided in FIG. 1A as indicated by the numbered dose in a circle. The first dose (indicated by a circled number 1) was given on day 1 before IgE injection and a 2nd dose (indicated by a circled number 2) was given on day 2 before dinitrofluorobenzene (DNFB, as an allergen) challenge. Mice were passively sensitized by i.v. injection of 2 μg anti-DNP IgE mAb (Sigma). After 24 h, a cutaneous reaction was elicited by the application of 20 μl of DNFB (0.3% wt/vol, Sigma) in acetone-olive oil (4:1) to both sides of the left hind paw or left ear, and 20 μl of acetone-olive oil to the right hind paw or right ear as a control. The thickness of foot pad or ear was measured using a digital micrometer after 24 h. The thickness of the right ear or right hind paw (treated with acetone-olive oil only) was used as baseline values. The DNFB-induced increment of tissue thickness was expressed as the percentage of the baseline values.

[3] = system: Mice sensitized with anti-DNP IgE mAb, DNP-BSA challenge; assay: Prophylactic effects: IgE-mediated passive cutaneous anaphylaxis (Evan's blue dye leakage); format: in vivo
Protocol: Mice were given 4-[1-(5-methyl-pyridin-3-ylmethyl)piperidin-4-ylidene]-4,9-dihydro-1-thia-benzo[f]azulen-10-one (1 mg/kg) or ketotifen (1 mg/kg) orally as per dosing schedule shown in FIG. 2A. Subsequently, mice were sensitized by intradermal injection of 20 ng antidinitrophenyl (DNP) IgE mAb (Sigma) into left ears, while right ear received saline as a control. After 24 h, mice were challenged by i.v. injection of 100 μg of DNP-Bovine Serum Albumin (BSA) (as an allergen) in 200 μl Evan's blue dye (1% wt/vol, Sigma). Thirty min later, ear punch (8 mm) was collected in 300 μl of formamide and incubated at 80° C. for 2 h in water bath to extract Evan's blue dye. The absorbance was determined at 620 nm. […] Granule-associated mediators such as histamine stimulate endothelium and blood vessel smooth muscle cells leading to increased vascular permeability.

[4] = system: Mice passively sensitized with anti-DNP IgE mAb, DNFB application; assay: Therapeutic effects: IgE-mediated late phase cutaneous reactions (ear and foot swelling); format: in vivo; conditions: FIG. 3B
Protocol: After 24 h, a cutaneous reaction was elicited by the application of 20 μL of DNFB (0.3% wt/vol, Sigma) in acetone-olive oil (4:1) to both sides of the left hind paw or left ear, and 20 μl of acetone-olive oil to the right hind paw or right ear as a control as shown in FIG. 3A. Three hours after DNFB application, mice were given 4-[1-(5-methyl-pyridin-3-ylmethyl)piperidin-4-ylidene]-4,9-dihydro-1-thia-benzo[f]azulen-10-one (1 mg/kg, p.o.), ketotifen (1 mg/kg, p.o.) or saline as control as indicated in FIG. 3A by the circled number “1”. The thickness of foot pad or ear was measured using a digital micrometer after 24 h of DNFB application. The weight of hind paw or ear punch (5 mm) was also determined. The thickness and weight of the right ear or right hind paw (treated with acetone-olive oil only) were used as baseline values. The DNFB-induced increment of tissue thickness was expressed as the percentage of the baseline values.

[5] = system: Mouse bone marrow derived mast cells (BMMCs); assay: Allergen-induced cytokine IL-6 production by mast cells in vitro; format: cell-based; conditions: FIG. 4
Protocol: Mouse bone marrow derived mast cells (BMMCs) were resuspended in fresh complete medium supplemented with TIB141-conditioned medium enriched in IgE directed against trinitrophenyl (TNP) at a ratio of 3:1. BMMCs were typically sensitized at 0.5 million/ml. Following sensitization, BMMCs were washed extensively with RPMI 1640 supplemented with 10% FBS alone. BMMCs were then treated with 4-[1-(5-methyl-pyridin-3-ylmethyl)piperidin-4-ylidene]-4,9-dihydro-1-thia-benzo[f]azulen-10-one or ketotifen at the concentration of […], 1, 10 or 100 μM for 1 hour and subsequently stimulated with antigen TNP-BSA (10 ng/ml) for 6 h. Cytokine levels in the cell free supernatant were determined by ELISA.

[6] = 1 mg/kg p.o. each, three hours after DNFB application

| SMILES | thymidine incorporation (eosinophil proliferation) [1] | allergen DNFB-induced ear and foot swelling [2] | allergen (DNP)-induced Evan's blue dye leakage ([3]; 1 mg/kg orally before sensitization, compared to the vehicle control, FIG. 2B) | time after oral administration at which inhibitory effects on Evan's blue dye leakage and tissue swelling were observed ([3]; 1 mg/kg orally, suggesting long-lasting effects) [h] | block of swelling and weight increase of ear and feet, compared with ketotifen [4, 6] | foot weight, activity compared with ketotifen [4, 6] | DNP-induced swelling and increase the weight of the ear and the feet ([4]; 1 mg/kg p.o. three hours after DNFB application, measured 24 h after DNFB application) | cytokine IL-6 production by mast cells ([5]; BMMCs treated at 01, 1, 10 or 100 μM for 1 hour, then TNP-BSA (10 ng/ml) for 6 h, ELISA) | reduction of IL-6 production by mast cells, compared with ketotifen ([5]; equivalent concentrations (01, 1, 10 or 100 μM)) | inhibition on eosinophil proliferation, compared with ketotifen ([1]; p<0.01, n=3 experiments, FIG. 5) |
| --- | --- | --- | --- | --- | --- | --- | --- | --- | --- | --- |
| CN1CCC(=C2c3ccccc3CC(=O)c3sccc32)CC1 [ketotifen, reference compound] | dose-dependently reduced |  |  |  |  |  |  |  |  |  |
| Cc1cncc(CN2CCC(=C3c4ccccc4CC(=O)c4sccc43)CC2)c1 [Compound A, 4-[1-(5-methyl-pyridin-3-ylmethyl)-piperidin-4-ylidene]-4,9-dihydro-1-thia-benzo[f]azulen-10-one] | dose-dependently reduced | strongly reduced | strongly reduced | 24 | comparable to ketotifen | surpassing the activity of ketotifen | significantly block | significantly reduce | even more effective than ketotifen at some of the equivalent concentrations used | significantly stronger inhibition |
